What was measured:
[1] = Solubility in selected solvents (Table 2); format: physicochemical; settings: thermodynamic from solid; for solubility at 2 h: 50° C.; for solubility: rt
Experimental: To 10 mg of compound X in a sample vial at 50° C., selected solvent was added dropwise. The addition of solvent was stopped when a clear solution was reached or when the amount of solvent reached 1 mL. The resulting mixture was stirred continuously at 50° C. for 2 h, then cooled to rt, and stirred overnight. The solubilities at 50° C. and rt were determined by the homogeneity of the resulting mixture.

[2] = system: H3K27 methylation in G401 cell; assay: ELISA (H3K27 methylation) assay; format: cell-based; settings: Homo sapiens, G-401; ELISA Qualified, G401 cells, 48 h; read-out: (c) IC50
Experimental: ELISA (H3K27 Methylation) Assay
Representative compounds of the present invention were serially and separately diluted 3-fold in DMSO to obtain a total of eight or twelve concentrations. Then the compounds were added to G401 cell cultured in 384-well plate at 1:500 dilution to obtain the highest concentration of 20 μM. The cells were further cultured for 48 h before ELISA procedure.
Histone extraction: Cells, in 384-well plate, were washed with PBS (10×PBS buffer (80 g NaCl (Sigma, S3014), 2 g KCl (Sigma, 60128), 14.4 g Na2HPO4 (Sigma, S5136), 2.4 g KH2PO4 (Sigma, P9791) to 1 L water, pH to 7.4) and lysed with the addition of lysis buffer (0.4N HCl; 45 μL per well). The plate was gently agitated at 4° C. for 30 min. The cell lysate was neutralized with neutralization buffer (0.5 M sodium phosphate dibasic, pH 12.5, 1 mM DTT; 36 μL per well). The plate was agitated to ensure the lysates were well mixed prior to the ELISA protocol.
ELISA protocol: Cell lysates were transferred to the wells of a 384-well plate and the final volume was adjusted to 50 μL per well with PBS. The plate was sealed, centrifuged at 2,000 rpm for 2 min and incubated at 4° C. for about 16 h. […] The signal was read using a PerkinElmer Envision Reader. The H3K27 methylation readouts were normalized using H3 signal and then percentage inhibition was calculated against the samples treated with DMSO. […]

[3] = system: B cell lymphoma cell KARPAS422; assay: Analysis of cell proliferation; format: cell-based; settings: Homo sapiens, KARPAS-422, 336 h; KARPAS422, after 14 days of treatment; read-out: antiproliferative activities (IC50 values)
Experimental: Analysis of Cell Proliferation
B cell lymphoma cell KARPAS422 was cultured using standard cell culture conditions in RPMI-1640 (Invitrogen, cat #11875) supplemented with 15% FBS (Invitrogen, cat #10099-141) in humidified incubator at 37° C., 5% CO2. To assess the effect of PRC2 inhibition on cell proliferation, exponentially growing cells were seeded at a density of 1×10^5 cells/mL in 12-well plate (Corning, cat #CLS3513). After cell seeding, a compound of the present invention was added to the cell media (in concentrations ranging from 0 to 100 μM, 3× dilution series). Viable cell numbers were determined every 3-4 days for up to 14 days using Vi-CELL (Beckman Coulter). On days of cell counting, fresh growth media and compound were replenished and cells split back to a density of 1×10^5 cells/mL. Total cell number is expressed as split-adjusted viable cells per mL. The dose response curves and IC50 values were generated using Prism.

[4] = Aqueous solubility (pH 7.4, simulated gastric fluid); format: physicochemical
[5] = Rodent pharmacokinetic studies, exposure versus dose; format: in vivo; settings: higher doses
[6] = Stability of solid form to humidity and temperature; format: physicochemical
Experimental: Dynamic vapor sorption was performed on a Surface Measurement Systems DVS Advantage instrument. Approximately 10 mg of material was loaded into a sample pan. The samples were exposed to sorption/desorption cycles in 10% relative humidity (RH) steps over the range of 50%-90%-0%-90%-50% RH at 25° C. and 50° C. A target equilibrium condition of mass change less than 0.002% over 5 min was set, with minimum and maximum equilibrium periods of 10 and 360 min, respectively. The carrier gas was nitrogen with a flow rate of 100 mL/min. The system is calibrated with saturated salt solutions. The weight percentage change (wt %) of the sample at each stage was measured and plotted versus the target partial pressure.

[7] = aqueous with cosolvent or surfactant or cyclodextrin, Acetone/H2O (1/1)
[8] = aqueous with cosolvent or surfactant or cyclodextrin, EtOH/H2O (1/1)
[9] = organic solvent or mixture, ACN
[10] = organic solvent or mixture, Acetone
[11] = organic solvent or mixture, EtOAc
[12] = organic solvent or mixture, EtOH
[13] = organic solvent or mixture, Heptane
[14] = organic solvent or mixture, IPA
[15] = organic solvent or mixture, MTBE
[16] = organic solvent or mixture, MeOH
[17] = organic solvent or mixture, THF

| Compound | solubility at 2 h [1, 7] | solubility [1, 7] | solubility at 2 h [1, 8] | solubility [1, 8] | solubility at 2 h [1, 9] | solubility [1, 9] | solubility at 2 h [1, 10] | solubility [1, 10] | solubility at 2 h [1, 11] | solubility [1, 11] | solubility at 2 h [1, 12] | solubility [1, 12] | solubility at 2 h [1, 13] | solubility [1, 13] | solubility at 2 h [1, 14] | solubility [1, 14] | solubility at 2 h [1, 15] | solubility [1, 15] | solubility at 2 h [1, 16] | solubility [1, 16] | other results |
| --- | --- | --- | --- | --- | --- | --- | --- | --- | --- | --- | --- | --- | --- | --- | --- | --- | --- | --- | --- | --- | --- |
| Cc1ncccc1-c1cnc(NCc2c(F)ccc3c2CCO3)n2cnnc12 [Compound A, N-((5-Fluoro-2,3-dihydrobenzofuran-4-yl)methyl)-8-(2-methylpyridin-3-yl)-[1,2,4]triazolo[4,3-c]pyrimidin-5-amine] | < 10000 µg/mL | < 10000 µg/mL | < 10000 µg/mL | < 10000 µg/mL | < 10000 µg/mL | < 10000 µg/mL | < 10000 µg/mL | < 10000 µg/mL | < 10000 µg/mL | < 10000 µg/mL | < 10000 µg/mL | < 10000 µg/mL | < 10000 µg/mL | < 10000 µg/mL | < 10000 µg/mL | < 10000 µg/mL | < 10000 µg/mL | < 10000 µg/mL | < 10000 µg/mL | < 10000 µg/mL | solubility at 2 h [1, 17]: < 10000 µg/mL; solubility [1, 17]: < 10000 µg/mL; solubility at 2 h ([1]; Water): < 10000 µg/mL; solubility ([1]; Water): < 10000 µg/mL; IC50 [2]: 2.6 nM; IC50 [3]: 3 nM; aqueous solubility ([4]; physiologically relevant pH level of 7.4): low; aqueous solubility ([4]; simulated gastric fluid (SGF)): low; exposure relative to dose [5]: under-proportional |
| Cc1ncccc1-c1cnc(NCc2c(F)ccc3c2CCO3)n2cnnc12.Cl [Compound X, N-((5-Fluoro-2,3-dihydrobenzofuran-4-yl)methyl)-8-(2-methylpyridin-3-yl)-[1,2,4]triazolo[4,3-c]pyrimidin-5-amine hydrochloride] | > 50000 µg/mL | < 50000 µg/mL | > 50000 µg/mL | < 50000 µg/mL | < 10000 µg/mL | < 10000 µg/mL | < 10000 µg/mL | < 10000 µg/mL | < 10000 µg/mL | < 10000 µg/mL | < 10000 µg/mL | < 10000 µg/mL | < 10000 µg/mL | < 10000 µg/mL | < 10000 µg/mL | < 10000 µg/mL | < 10000 µg/mL | < 10000 µg/mL | > 10000 µg/mL | > 10000 µg/mL | solubility at 2 h [1, 17]: < 10000 µg/mL; solubility [1, 17]: < 10000 µg/mL; solubility at 2 h ([1]; Water): < 10000 µg/mL; solubility ([1]; Water): < 10000 µg/mL; exposure relative to dose [5]: dose-proportional |
| Cc1ncccc1-c1cnc(NCc2c(F)ccc3c2CCO3)n2cnnc12.Cl [Form HA, N-((5-Fluoro-2,3-dihydrobenzofuran-4-yl)methyl)-8-(2-methylpyridin-3-yl)-[1,2,4]triazolo[4,3-c]pyrimidin-5-amine hydrochloride] | – | – | – | – | – | – | – | – | – | – | – | – | – | – | – | – | – | – | – | – | stability to humidity and temperature [6]: acceptable stability |

— patent US11548897B2, “Crystalline forms of a triazolopyrimidine compound” (NOVARTIS AG, priority 2016, dated 2023)
